In patent US11786486B2, “Pharmaceutical compositions comprising 2,3,5-trimethyl-6-nonylcyclohexa-2,5-diene-1,4-dione” (PTC THERAPEUTICS, INC., priority 2021, dated 2023):
In brackets after ≈: the same amount, converted by molar mass.

Columns and labels:
[1] = Solubility of Compound 1 in oils, surfactants and co-surfactants; format: physicochemical
Procedure: Based on the initial screening as shown in Table 1 and based on limits of excipients allowed by FDA, the solubility of Compound 1 in the oils in Table 1A were measured. Based on the solubility data, Labrafac WL 1349 was further pursued.
A total of 36 different excipients including pharmaceutically acceptable oils, surfactants and co-surfactants were evaluated for Compound 1. Higher solubility of Compound 1 in oils is desirable to increase drug loading.

[2] = Physical stability on storage (microscope / polarized microscope); format: physicochemical; settings: 25° C./60% RH and 5° C.
Procedure: Certain combinations of Gelucire 44/14 with Solutol HS15, TPGS and Tween 80 were screened as shown in Table 2 at 200 mg/g concentration of Compound 1. Physical stability was observed microscopically at week one at 25° C./60% RH and at 5° C. Bioperformance was assessed visual observation after 10× dilution in FaSSIF. Based on the crash resistance test performed with ten times dilution with FaSSIF, the most promising formulation combination for Gelucire 44/14 appeared to be 80% w/w Gelucire 44/14, 10% w/w TPGS and 10% w/w Tween 80.
In the above table and in this paragraph, the % w/w are based on the total weight of the vehicle without compound. The 80% w/w Gelucire 44/14, 10% w/w TPGS and 10% w/w Tween 80 formulation vehicles were further tested at lower Compound 1 concentrations of 150 mg/g (i.e. 150 mg of Compound 1 in 1 g of Compound 1+vehicle) and 100 mg/g (i.e. 100 mg of Compound 1 in 1 g of Compound 1+vehicle) to minimize the crystallization risk upon storage. Physical stability was observed microscopically at week one at 25° C./60% RH and at 5° C. Bioperformance was assessed visual observation after 10× dilution in FaSSIF.
Physical stability evaluation of both Gelucire 44/14-based and Labrafac-WL-1349-based formulation vehicles was done under polarized microscope. […] Therefore, Labrafac-WL-1349-based formulation was physically stable upon storage.

CCCCCCCCCC1=C(C)C(=O)C(C)=C(C)C1=O [Compound 1, 2,3,5-trimethyl-6-nonylcyclohexa-2,5-diene-1,4-dione]
Solubility of Compound 1 ([1]; in Soybean oil, RT): <150 mg/g
solubility ([1]; oil or lipid, in Capryol 90, RT): 125 mg/mL (≈ 451 mM)
solubility ([1]; oil or lipid, in Capryol PGMC, RT): 184 mg/mL (≈ 665 mM)
solubility ([1]; oil or lipid, in Corn Oil, RT): 115 mg/mL (≈ 417 mM)
solubility ([1]; oil or lipid, in Cottonseed Oil, RT): 112 mg/mL (≈ 404 mM)
solubility ([1]; oil or lipid, in Labrafac Lipo WL1349, RT): 141 mg/mL (≈ 510 mM)
solubility ([1]; oil or lipid, in Labrafac PG, RT): 222 mg/mL (≈ 803 mM)
solubility ([1]; oil or lipid, in Labrafil M1944CS, RT): 101 mg/mL (≈ 364 mM)
solubility ([1]; oil or lipid, in Labrafil M2125CS, RT): 119 mg/mL (≈ 429 mM)
solubility ([1]; oil or lipid, in Lauroglycol 90, RT): 133 mg/mL (≈ 483 mM)
solubility ([1]; oil or lipid, in Lauroglycol FCC, RT): 160 mg/mL (≈ 578 mM)
solubility ([1]; oil or lipid, in Maisine CC, RT): 90.3 mg/mL (≈ 327 mM)
solubility ([1]; oil or lipid, in Olive oil, RT): 135 mg/mL (≈ 488 mM)
solubility ([1]; oil or lipid, in Plurol oleique CC 497): 50 to 100 mg/mL (≈ 181 to 362 mM)
solubility ([1]; oil or lipid, in Sesame oil, RT): 139 mg/mL (≈ 503 mM)
solubility ([1]; oil or lipid, in Soybean Oil, RT): 111 mg/mL (≈ 400 mM)
solubility ([1]; organic solvent or mixture, in Gelucire 44/14, 45° C.): 269 mg/mL (≈ 973 mM)
solubility ([1]; organic solvent or mixture, in Labrasol, RT): 35.7 mg/mL (≈ 129 mM)
solubility ([1]; organic solvent or mixture, in PEG400, 37° C.): 11 mg/mL (≈ 39.8 mM)
solubility ([1]; organic solvent or mixture, in Solutol HS15, 37° C.): 94 mg/mL (≈ 340 mM)
solubility ([1]; organic solvent or mixture, in TPGS, 45° C.): 195 mg/mL (≈ 705 mM)
solubility ([1]; organic solvent or mixture, in Triethyl citrate, RT): 30.1 mg/mL (≈ 109 mM)
solubility ([1]; organic solvent or mixture, in Tween 60): 50 to 100 mg/mL (≈ 181 to 362 mM)
solubility ([1]; organic solvent or mixture, in Tween 80): 25 to 50 mg/mL (≈ 90.4 to 181 mM)
Physical stability ([2]; 150 mg/g in vehicle 80% Gelucire 44/14, 10% TPGS, 10% Tween 80, week one): Crystallization observed
Physical stability ([2]; 200 mg/g in vehicle 70% Gelucire 44/14, 10% TPGS, 20% Tween 80, week one): Crystallization
Physical stability ([2]; 200 mg/g in vehicle 80% Gelucire 44/14, 10% TPGS, 10% Tween 80, week one): Crystallization
Physical stability ([2]; 200 mg/g in vehicle 80% Gelucire 44/14, 20% Tween 80, week one): Crystallization
Physical stability ([2]; 200 mg/g in vehicle 85% Gelucire 44/14, 5% Solutol HS15, 5% TPGS, 5% Tween 80, week one): Crystallization
Physical stability ([2]; 200 mg/g in vehicle 90% Gelucire 44/14, 10% TPGS, week one): Crystallization
Physical stability ([2]; 200 mg/g in vehicle 90% Gelucire 44/14, 10% Tween 80, week one): Crystallization
